Experimental data published in publication PMC7414797 (Nature, 2015).
≈ marks a conversion by molar mass, not a printed value. Where “and” joins values, the source holds several entries; their conditions need not be identical. Equal values may be shown once. Read-outs that look alike come from different tables or passages of the source.

Assays:
Staphylococcus aureus = assay: MIC by broth microdilution; format: cell-based; conditions: for MIC90: Staphylococcus aureus
Enterococcus faecalis = assay: MIC by broth microdilution; format: cell-based; conditions: for MIC Range: Enterococcus faecalis 50% VRE, 10 contemporary clinical isolates; for MIC90: Enterococcus faecalis, VRE
Enterococcus faecium = assay: MIC by broth microdilution; format: cell-based; conditions: for MIC Range: E. faecium 50%VRE, 10 contemporary clinical isolates; for MIC90: Enterococcus faecium, VRE
Streptococcus pneumoniae = assay: MIC by broth microdilution; format: cell-based; conditions: for MIC90: Streptococcus pneumoniae, PRSP
Streptococcus pyogenes = assay: MIC by broth microdilution; format: cell-based; conditions: for MIC90: Streptococcus pyogenes
Streptococcus agalactiae = assay: MIC by broth microdilution; format: cell-based; conditions: for MIC90: Streptococcus agalactiae
[1] = system: Viridans group streptococci; assay: MIC by broth microdilution; format: cell-based
S. epidermidis = assay: MIC by broth microdilution; format: cell-based; conditions: for MIC90: Staphylococcus epidermidis
S. aureus MRSA ATCC33591 = assay: Mouse sepsis protection model; format: in vivo, mice; conditions: MRSA septicemia, single i.v. dose 1 h post-infection, survival at 48 h
[2] = S. aureus Daptomycin^NS, 5 contemporary clinical isolates
[3] = S. aureus MRSA, 20 contemporary clinical isolates
[4] = S. aureus VISA, 10 contemporary clinical isolates
[5] = Staphylococcus aureus MSSA, 20 contemporary clinical isolates
[6] = S. pyogenes, 10 contemporary clinical isolates
[7] = S. agalactiae, 10 contemporary clinical isolates
[8] = Viridans Group Streptococci, 5 isolates (S. sanguis, S. mitis, S. anginosus, S. intermedius, S. salivarius)
[9] = S. epidermidis, 20 contemporary clinical isolates

SMILES	MIC Range (Staphylococcus aureus; [2])	MIC Range (Staphylococcus aureus; [3])	MIC Range (Staphylococcus aureus; [4])	MIC Range (Staphylococcus aureus; [5])	MIC90 (Staphylococcus aureus; MRSA)	MIC90 (Staphylococcus aureus; MSSA)	MIC90 (Staphylococcus aureus; VISA)	MIC Range (Enterococcus faecalis)	MIC90 (Enterococcus faecalis)	MIC Range (Enterococcus faecium)	MIC90 (Enterococcus faecium)	MIC90 (Streptococcus pneumoniae)	MIC Range (Streptococcus pyogenes; [6])	MIC90 (Streptococcus pyogenes)	MIC Range (Streptococcus agalactiae; [7])	MIC90 (Streptococcus agalactiae)	MIC Range [1, 8]	MIC Range (S. epidermidis; [9])	MIC90 (S. epidermidis)	further results
CCCCCCCCCC(=O)N[C@@H](Cc1c[nH]c2ccccc12)C(=O)N[C@H](CC(N)=O)C(=O)N[C@@H](CC(=O)O)C(=O)N[C@@H]1C(=O)NCC(=O)N[C@@H](CCCN)C(=O)N[C@@H](CC(=O)O)C(=O)N[C@H](C)C(=O)N[C@@H](CC(=O)O)C(=O)NCC(=O)N[C@H](CO)C(=O)N[C@@H]([C@H](C)CC(=O)O)C(=O)N[C@@H](CC(=O)c2ccccc2N)C(=O)O[C@@H]1C [Daptomycin]	2 to 8 µg/mL	0.12 to 0.25 µg/mL	0.25 to 1 µg/mL	0.12 to 0.25 µg/mL	0.25 µg/mL (≈ 0.154 µM)	0.25 µg/mL (≈ 0.154 µM)	1 µg/mL (≈ 0.617 µM)	0.12 to 8 µg/mL	0.5 µg/mL (≈ 0.309 µM)	0.5 to 1 µg/mL	1 µg/mL (≈ 0.617 µM)	≤ 0.03 µg/mL	≤0.03 to 0.06 µg/mL	0.06 µg/mL (≈ 0.037 µM)	0.06 to 0.25 µg/mL	0.12 µg/mL (≈ 0.074 µM)	0.06 to 0.25 µg/mL	0.06 to 0.25 µg/mL	0.25 µg/mL (≈ 0.154 µM)	MIC Range (Staphylococcus aureus; S. aureus Linezolid^R, 5 contemporary clinical isolates): 0.25 to 0.5 µg/mL
CC(=O)NC[C@H]1CN(c2ccc(N3CCOCC3)c(F)c2)C(=O)O1 [Linezolid]	1 to 32 µg/mL	2 to 4 µg/mL	1 to 4 µg/mL	2 to 4 µg/mL	4 µg/mL (≈ 11.9 µM)	4 µg/mL (≈ 11.9 µM)	2 µg/mL (≈ 5.93 µM)	1 to 2 µg/mL	2 µg/mL (≈ 5.93 µM)	1 to 2 µg/mL	2 µg/mL (≈ 5.93 µM)	1 µg/mL (≈ 2.96 µM)	0.5 to 1 µg/mL	1 µg/mL (≈ 2.96 µM)	0.5 to 2 µg/mL	1 µg/mL (≈ 2.96 µM)	0.5 to 1 µg/mL	1 to 8 µg/mL	2 µg/mL (≈ 5.93 µM)	–
CN[C@H](CC(C)C)C(=O)N[C@H]1C(=O)N[C@@H](CC(N)=O)C(=O)N[C@H]2C(=O)N[C@H]3C(=O)N[C@H](C(=O)N[C@H](C(=O)O)c4cc(O)cc(O)c4-c4cc3ccc4O)[C@H](O)c3ccc(c(Cl)c3)Oc3cc2cc(c3O[C@@H]2O[C@H](CO)[C@@H](O)[C@H](O)[C@H]2O[C@H]2C[C@](C)(N)[C@H](O)[C@H](C)O2)Oc2ccc(cc2Cl)[C@H]1O [Vancomycin, vancomycin]	–	–	–	–	1 µg/mL (≈ 0.69 µM)	1 µg/mL (≈ 0.69 µM)	8 µg/mL (≈ 5.52 µM)	–	> 32 µg/mL	–	> 32 µg/mL	0.25 µg/mL (≈ 0.173 µM)	–	0.25 µg/mL (≈ 0.173 µM)	–	0.5 µg/mL (≈ 0.345 µM)	–	–	2 µg/mL (≈ 1.38 µM)	MIC Range (Staphylococcus aureus): 0.5 to 1 µg/mL and 0.5 to 2 µg/mL and 1 to 8 µg/mL and 0.5 to 8 µg/mL and 1 µg/mL; MIC Range (Streptococcus pneumoniae): 0.12 to 0.5 µg/mL; MIC Range (Streptococcus pyogenes): 0.25 µg/mL (≈ 0.173 µM); MIC Range (Streptococcus agalactiae): 0.25 to 0.5 µg/mL; MIC Range [1]: 0.25 to 0.5 µg/mL; MIC Range (S. epidermidis): 1 to 2 µg/mL; PD50 (protective dose at which half of the animals survive) (S. aureus MRSA ATCC33591): 2.75 mg per kg
